# Laboratory results taken from paper PMC9475553, “SHF Acts as a Novel Tumor Suppressor in Glioblastoma Multiforme by Disrupting STAT3 Dimerization” (Advanced Science, 2022).
# Tests used:
# [1] = test system: global DNA methylation; test: Global DNA methylation (5-mC ELISA) assay in U87 cells; format: cell-based, human; conditions: U87 cells treated with C16; n = 3, p < 0.01
# Protocol: Figure 7 Peptide derived from the STAT3‐binding sites of SHF is an effective GBM suppressive strategy. A) Binding model between SHF and STAT3 using ZDOCK server. […] B) IF staining determined the cell penetrability and nuclear‐localization of C16. U251 cells were incubated with C16 or SC for 2 h and performed IF staining using the indicated antibodies. Bars, 10 µm. C) The statical analysis of adsorption equilibrium assay detecting the binding of C16 and SC with recombinant STAT3. D) Pull‐down assay indicating C16 binds STAT3. GST‐STAT3 was incubated with C16 or SC for 2 h, and the pull‐down assay was performed using Anti‐His magnetic beads. E) IP assay showing the effect of C16 on STAT3 dimerization. […] The relative quantification of STAT3 dimerization was listed. […] The relative quantification of STAT3/DNMT1 interaction was listed. […] The relative quantification of STAT3/DNMT1 interaction was listed. […] Positive cells were quantified 20 randomly selected fields per mouse (n = 6, Student's t‐test, **p < 0.01). […]
# Global DNA methylation status was quantified by the MethylFlash Global DNA Methylation (5‐mC) ELISA Easy Kit (Epigentek, Brooklyn, NY). Levels of 5‐methylcytosine (5‐mC) were calculated according to the manufacturer's instructions. In brief, the purified and quantified genomic DNA were bound to strip‐wells treated for high DNA affinity. […]
# [2] = test system: GBM cells; test: Annexin V flow cytometry apoptosis assay; format: cell-based, human; conditions: 25 uM stated adequate for subsequent experiments, n=3
# Protocol: Cell apoptosis was detected by flow cytometry according to the manufacturer's instructions of the Annexin V‐FITC Apoptosis Detection Kit (KeyGen Biotech, China). Briefly, cells were incubated with Doxorubicin (DOX, 2 µM) for 48 h. Cells were harvested and rinsed with ice‐cold PBS and then resuspended in 200 µL of binding buffer. 10 mL of AV‐FITC stock solution was added to cell suspensions and incubated for 15 min at RT. Cells were further rinsed with 200 µL ice‐cold PBS and immediately analyzed by a FACScan flow cytometry.
# Supplementary Fig. 9 C16 inhibits tumor growth and promotes chemosensitivity in vitro.
# B. Colony formation of cells treated with SC or C16 (left) and the accompanying statistical
# analysis (right; n=6, Student’s t-test, **P < 0.01).
# C. Annexin V staining flow cytometry assay of cells simultaneously treated with Dox with SC or
# C16 for 48 h (n=3, Student’s t-test, *P < 0.05, **P < 0.01).
# (1 picture or pasted object on this page, not shown here)
substance,measurement,setting,value
"C16: peptide spanning SHF amino acids 388–421, palmitic acid at the N-terminus, amidated C-terminus, 3× His tags added to the C-terminal (PFSSVPEIVHHYASRKLPIKGAEHMSLLYPVAIR; palmitic acid at the N-terminus; amidated C-terminus; left off: 3× His tags, C-terminal, kept)",global DNA methylation,[1],significant decrease
same,spontaneous apoptosis,[2]; C16 vs SC,without increasing spontaneous apoptosis
same,chemosensitivity (apoptosis with Dox),[2]; simultaneous Dox with SC or C16 for 48 h,promoted chemosensitivity
